Data on eleven molecules can be found in ChEMBL document CHEMBL1201862, “PubChem BioAssay data set” (2004).

What all share (assay): NCI-60 cell line screen, 48 h
Test [1] relates to SNB-19.
In test [2] the test system is HL-60.
The test system of test [3] is M14.
In test [4] the test system is MDA-MB-231.
For test [5], the system named is CCRF-CEM.
Test [6] deals with HCT-116.
For test [7], the system named is HOP-92.
Test [8] deals with HT-29.
Test [9] concerns NCI-H23.
For test [10], the system named is SK-MEL-28.
For test [11], the system named is UACC-257.
Test [12] deals with A498.
For test [13], the system named is K562.
The subject of test [14] is Malme-3M.
Test [15] relates to NCI/ADR-RES.
For test [16], the system named is OVCAR-8.
The test system of test [17] is ACHN.
For test [18], the system named is RPMI-8226.
The subject of test [19] is SK-OV-3.
Test [20] deals with RXF 393.

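How tested: cells in 96-well plates exposed to compound for 48 hours at five concentrations. At the GI50, growth is halved.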 Activity calls are given as the source filed them. Cut-off read from the data, not from the text of the source: active = GI50 up to about 1.1 µM and inactive = higher.

On to `Cc1cccc(/C=N/NC(=S)N2CCCC2)n1`, for which the GI50 in test [1] is 2.82 µM (inactive); in test [2] it was 0.0559 µM (active); in [3], 0.133 µM (active); in test [4] it was 0.133 µM (active); in test [5], < 0.01 µM (active); in test [6], 0.069 µM (active). Moreover, the GI50 was 1.65 µM (inactive) in test [7]; 0.0528 µM (active) in test [8]; 0.215 µM (active) in test [9]; 1.02 µM (active) in test [10]; 0.486 µM (active) in test [11]; 0.347 µM (active) in [12]. Also, the GI50 in test [13] was 0.2 µM (active); in test [14] it was 0.0286 µM (active); in test [15] it was 0.166 µM (active); in test [16], 0.324 µM (active); in test [17], 0.202 µM (active).
On to `COC(=O)[C@H](CCSC)NC(=O)c1ccc(CNC(=O)/C=C/c2cccc(Oc3ccccc3)c2)cc1`, for which the GI50 in test [1] is > 95.1 µM (inactive); in [3], 13.5 µM (inactive); in test [4], 21.3 µM (inactive); in test [5], 33.1 µM (inactive); in test [6], > 100 µM (inactive); in [7], 9.75 µM (inactive). Further, the GI50 was > 100 µM (inactive) in test [8]; 42 µM (inactive) in [9]; 17.4 µM (inactive) in test [10]; 11.5 µM (inactive) in test [11]; 19.8 µM (inactive) in test [12]; 20.7 µM (inactive) in test [13]. Also, the GI50 in test [18] is 45.5 µM (inactive); in test [14], 18.8 µM (inactive); in [15] it was 43 µM (inactive); in test [16] it was > 100 µM (inactive); in [19], > 100 µM (inactive); in [20], 16.7 µM (inactive). The GI50 in test [17] is > 74.6 µM (inactive).
In the case of `CC1(C)C2CCC1(C)[C@H](n1c(=O)n([C@@H]3CC4CCC3(C)C4(C)C)c(=O)n([C@@H]3CC4CCC3(C)C4(C)C)c1=O)C2`, the GI50 in test [2] is 23.9 µM (inactive); in test [3], > 100 µM (inactive); in test [4] it was 45.5 µM (inactive); in test [6] it was 36.7 µM (inactive); in test [7], 87.7 µM (inactive); in test [8], 56.8 µM (inactive). Moreover, the GI50 was 63 µM (inactive) in test [9]; 92 µM (inactive) in [10]; 55.8 µM (inactive) in [11]; 88.5 µM (inactive) in test [12]; 85.9 µM (inactive) in test [13]; 57.9 µM (inactive) in test [18]. The GI50 in test [15] was > 100 µM (inactive); in test [16], 49.9 µM (inactive); in [20], 19.8 µM (inactive); in [17], 37.8 µM (inactive).
Regarding `C[C@H]1CC[C@@]2(OC1)O[C@H]1C[C@H]3[C@@H]4CC[C@@H]5C[C@@H](OC6OC(CO)C(O)C(O)C6OC6OC(CO)C(O)C(O)C6O)CC[C@]5(C)[C@H]4CC[C@]3(C)[C@H]1[C@@H]2C` (stereo not given in full), the GI50 in [1] was 2.18 µM (inactive); in test [2], 0.889 µM (active); in test [3], 2.06 µM (inactive); in test [4] it was 2.09 µM (inactive); in [5], 1.58 µM (inactive); in test [6] it was 2.01 µM (inactive). The GI50 in [7] is 2.37 µM (inactive); in [8], 2 µM (inactive); in [9], 2.31 µM (inactive); in test [11] it was 2.15 µM (inactive); in [13], 2.07 µM (inactive); in test [18], 1.9 µM (inactive). Also, the GI50 in test [14] is 2.62 µM (inactive); in test [15], 2.99 µM (inactive); in test [16], 2.45 µM (inactive); in [19] it was 1.69 µM (inactive); in test [17] it was 2.11 µM (inactive).
`COC(=O)/C=C/c1ccc2c(c1)[C@H](C(=O)OC)[C@@H](c1ccc(O)cc1)O2`: the GI50 was 21.9 µM (inactive) in test [1]; 6.27 µM (inactive) in test [2]; 10.5 µM (inactive) in test [3]; 14.8 µM (inactive) in test [4]; 9.06 µM (inactive) in [5]; 38.5 µM (inactive) in test [6]. Further, the GI50 was 59 µM (inactive) in test [7]; 27.9 µM (inactive) in test [8]; 46.8 µM (inactive) in [9]; 23.1 µM (inactive) in [10]; 32.5 µM (inactive) in test [11]; 86.9 µM (inactive) in test [12]. The GI50 in test [13] was 4.06 µM (inactive); in test [18], > 10 µM (inactive); in test [14], 20.6 µM (inactive); in test [15], 32.3 µM (inactive); in [16], 37 µM (inactive); in test [19], 69 µM (inactive). For the same molecule, the GI50 in test [17] was 42.6 µM (inactive).
On to `CCCN1C(=O)/C(=C\c2ccc(OC)c(OC)c2)S/C1=N\c1ccccc1`, for which the GI50 in test [1] is 27.5 µM (inactive); in test [2] it was > 100 µM (inactive); in test [3], > 100 µM (inactive); in [4], > 100 µM (inactive); in test [5], > 100 µM (inactive); in test [6], > 100 µM (inactive). The GI50 was 50.1 µM (inactive) in test [7]; > 100 µM (inactive) in test [8]; > 100 µM (inactive) in test [9]; > 100 µM (inactive) in test [10]; > 100 µM (inactive) in test [11]; 38.3 µM (inactive) in test [12]. Besides, the GI50 in test [13] was > 100 µM (inactive); in [18], > 100 µM (inactive); in [14], > 100 µM (inactive); in test [15], > 100 µM (inactive); in test [16], > 100 µM (inactive); in test [19], 27.9 µM (inactive). The GI50 in test [17] was > 100 µM (inactive).
`COc1cc([C@H]2c3cc(O)c(OC)cc3C[C@]3(O)[C@@H]2CO[C@@H]3O)ccc1O`: the GI50 in test [1], in test [2], in test [3], in test [4], in [5] and in test [6] was > 100 µM (inactive) in each case. The GI50 in test [7], in test [8], in [9], in test [10], in test [11] and in test [12] was > 100 µM (inactive) in each case. Moreover, the GI50 in test [13], in [18], in [15], in test [16], in [19] and in test [17] was > 100 µM (inactive) each time.
With `CC1CN=C(N(C(=O)Nc2ccc(Cl)cc2)c2cccc(Cl)c2)S1` (stereo not given), the GI50 in test [1] was > 100 µM (inactive); in test [2] it was 48.2 µM (inactive); in test [3] it was 7.24 µM (inactive); in [4], 39.3 µM (inactive); in test [5], 17.8 µM (inactive); in [6] it was 20.4 µM (inactive). In addition, the GI50 in test [7] is 26.3 µM (inactive); in [8] it was 23 µM (inactive); in [9], 35.1 µM (inactive); in [10], 28.6 µM (inactive); in [11] it was 28.2 µM (inactive); in test [12], 16.9 µM (inactive). Moreover, the GI50 was 7.06 µM (inactive) in test [13]; > 10 µM (inactive) in test [18]; 59 µM (inactive) in [14]; 19.2 µM (inactive) in test [15]; 36.9 µM (inactive) in test [16]; > 100 µM (inactive) in test [19]. The GI50 in test [17] is 10.8 µM (inactive).
As for `CC1=NN(c2cccc(Cl)c2)C2(C1=Cc1ccc(N(C)C)cc1)C(Cl)C(=O)N2c1nc2ccccc2s1` (stereo not given), the GI50 in [2] is > 100 µM (inactive); in [3], 18.7 µM (inactive); in test [4] it was 46.8 µM (inactive); in test [5], 50.5 µM (inactive); in test [6] it was 60 µM (inactive); in test [7], 18.6 µM (inactive). The GI50 was 25.5 µM (inactive) in test [8]; 45.5 µM (inactive) in test [9]; > 100 µM (inactive) in test [10]; > 100 µM (inactive) in test [11]; 36.3 µM (inactive) in [12]; 56.9 µM (inactive) in [13]. The GI50 in test [18] was 41 µM (inactive); in [15], 63.5 µM (inactive); in test [16], 73.3 µM (inactive); in test [19], 34.4 µM (inactive); in test [20], 20.3 µM (inactive); in [17], 53.2 µM (inactive).
Take `COc1cc2c(cc1OC)C1=Cc3ccc(OC)c(OC)c3C(C#N)N1CC2` (stereo not given): the GI50 was 41.3 µM (inactive) in test [1]; 39 µM (inactive) in test [2]; 50.2 µM (inactive) in test [3]; 28.8 µM (inactive) in [4]; 37.9 µM (inactive) in [5]; 36.1 µM (inactive) in test [6]. Further, the GI50 was 33.7 µM (inactive) in test [8]; 29.8 µM (inactive) in test [9]; 32.4 µM (inactive) in test [10]; 17.7 µM (inactive) in [11]; > 100 µM (inactive) in test [12]; 20.7 µM (inactive) in [18]. For the same molecule, the GI50 in test [14] is 22.4 µM (inactive); in [15], > 100 µM (inactive); in test [19], > 100 µM (inactive); in [17], > 100 µM (inactive).
On to `Oc1cc(-c2cccc(C(F)(F)F)c2)nc2cc3c(cc12)OCO3`, for which the GI50 was 2.77 µM (inactive) in [1]; 0.246 µM (active) in test [2]; 1.76 µM (inactive) in [3]; 1.87 µM (inactive) in test [4]; 0.277 µM (active) in test [5]; 2.24 µM (inactive) in test [7]. For the same molecule, the GI50 in [8] was 13.7 µM (inactive); in test [9], 1.77 µM (inactive); in test [10], 2.87 µM (inactive); in test [12] it was 8.87 µM (inactive); in [13], 0.26 µM (active); in test [18] it was 1.77 µM (inactive). Besides, the GI50 in test [14] is 0.518 µM (active); in test [15], 1.04 µM (active); in test [16] it was 2.34 µM (inactive); in test [19], 2.26 µM (inactive); in [17], 25.7 µM (inactive).
